This test concerns the target 5-hydroxytryptamine receptor 4 (Rattus norvegicus, UniProt Q62758).

Sequence of 5-hydroxytryptamine receptor 4 (Q62758 whole entry): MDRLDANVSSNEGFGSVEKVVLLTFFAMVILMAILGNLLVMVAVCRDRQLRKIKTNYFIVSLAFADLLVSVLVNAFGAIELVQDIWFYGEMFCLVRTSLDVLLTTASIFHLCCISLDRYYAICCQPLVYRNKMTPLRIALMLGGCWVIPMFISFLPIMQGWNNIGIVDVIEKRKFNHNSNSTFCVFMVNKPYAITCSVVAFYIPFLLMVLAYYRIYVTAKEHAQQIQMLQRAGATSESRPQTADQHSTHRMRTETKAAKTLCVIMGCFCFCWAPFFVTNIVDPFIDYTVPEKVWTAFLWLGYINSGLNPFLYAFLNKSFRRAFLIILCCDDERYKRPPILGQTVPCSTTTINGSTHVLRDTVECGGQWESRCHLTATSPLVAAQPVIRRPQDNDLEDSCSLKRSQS

For `CN1C2CCC1CC(OC(=O)c1c[nH]c3ccccc13)C2` (stereo unspecified), the inhibition constant Ki came to 159 nM.
The same measure for `Cn1cc(CCN)c2cc(O)ccc21` [5-HT,omega-N-Me]: 263 nM; for `NCCc1c[nH]c2ccc(C(N)=O)cc12` [[3H]-5-carboxamidotryptamine]: 1000 nM; for `COc1ccc2[nH]cc(CCN)c2c1` [tryptamine, 5-Methoxy]: 112 nM.
`COc1cc(N)c(Cl)cc1C(=O)NC1CCN(CCCOc2ccc(F)cc2)CC1OC` (stereo unspecified) [4-amino-5-chloro-N-(1-(3-(4-fluorophenoxy)propyl)-3-methoxypiperidin-4-yl)-2-methoxybenzamide] gave an inhibition constant Ki of 25 nM.
In the case of `COc1cc(N)c(Cl)cc1C(=O)NC1CCN2CCCC1C2` (stereo unspecified) [NSC_3035240], the inhibition constant (Ki) is 27 nM.

The values above are taken from BindingDB's records for doi:10.1016/0014-2999(96)00122-7 (Synaptic Pharmaceutical, 1996).
